{"source": "patent US20260191835A1", "about": "“COMBINATIONS COMPRISING A MENIN-MLL INHIBITOR AND AT LEAST ONE OTHER THERAPEUTIC AGENT” (JANSSEN PHARMACEUTICA NV, priority 2022, published 2026)", "test_system": "MV4-11 cells", "assay": "In vitro proliferation (Cell Titer Glo, 6 days) of Compound 51 in combination with gilteritinib, midostaurin or decitabine, MV4-11", "format": "cell-based", "set-up": "key to Synergy/antagonism call (maxR test), MV4-11 Cell Proliferation: synergy is indicated by “**”; antagonism is indicated by “*”; no asterisk: absence of any asterisk indicates an additive effect", "conditions": "for combination effect on proliferation (cytotoxicity): 6-day CellTiter-Glo matrix", "procedure": "3) In Vitro Proliferation—Menin-MLL Inhibitor in Combination with FLT3 Inhibitor (Gilteritinib or Midostaurin), DNA Intercalating Agent (Idarubicin) or Hypomethylating Agent (Decitabine)\nThe effect of Compound 51 in combination with gilteritinib, midostaurin, idarubicin or decitabine was determined in proliferation assays.\nAML cell lines MOLM-13, OCI-AML3 and MV4-11 were purchased from DSMZ. MOLM-13 were grown in RPMI medium supplemented with 10% Fetal Bovine Serum (FBS) and 1% penicillin/streptomycin. MV4-11 cells were grown in IMDM medium supplemented with 10% FBS and 1% penicillin/streptomycin. OCI-AML3 cells were cultured in 80-90% alpha-MEM (with or without ribo- and deoxyribonucleosides)+10-20% FBS. All cell lines were cultured at 37° C. in 5% CO2 atmosphere.\nAML cell lines (10-20×10^3 cells/well) were seeded in 96-well plates and grown for 6 days in serum (10%)-containing medium in the presence or absence of inhibitors at the indicated concentrations. Proliferation was analyzed by means of a Cell Titer Glo assay using the […] (Promega, Madison, WI, USA), according to the manufacturer's instructions. Data are mean with standard deviation from two to four independent experiments in technical triplicates.\nR-based Biochemically Intuitive Generalized Loewe (BIGL) model implemented with a highest single agent (HSA) null model. Specifically, the BIGL methodology was applied to calculate drug-drug interactions (Van der Borght, K., Tourny, A., Bagdziunas, R. et al. BIGL: Biochemically Intuitive Generalized Loewe null model for prediction of the expected combined effect compatible with partial agonism and antagonism. Sci Rep 7, 17935 (2017); Thas, O., Tourny, A., Verbist, B., Hawinkel, S., Nazarov, M., Mutambanengwe, K., & Bijnens, L. Statistical detection of synergy: New methods and a comparative study. Pharmaceutical Statistics (2021)).\nSynergy matrix results of the BIGL analysis of the cell line data with HSA as mean model calculated on the basis of the cellular metabolic activity using Cell Titer-Glo assay. Bootstrap confidence intervals are indicated. Effect sizes and their confidence intervals are shown. […] No significant average effect if zero is included in the interval.", "key": {"[1]": {"conditions": "Compound 51 0.1 μm + Decitabine 0.15 μM"}, "[2]": {"conditions": "Compound 51 0.1 μm + Decitabine 1.5 μM"}}, "data": [{"smiles": "CC(=O)N1CCC(CN2CC[C@@H](Cc3cn(-c4ccc(F)cc4C(=O)N(C)C(C)C)c4cncc(C)c34)C2)CC1", "note": "[Compound 51]", "values": [{"measurement": "Effect size (BIGL, HSA null model), MV4-11 Cell Proliferation", "setting": "Compound 51 0.05 μm + Gilteritinib 0.3 μM", "result": "−0.02"}, {"measurement": "Effect size (BIGL, HSA null model), MV4-11 Cell Proliferation", "setting": "Compound 51 0.05 μm + Gilteritinib 1 μM", "result": "−0.02"}, {"measurement": "Effect size (BIGL, HSA null model), MV4-11 Cell Proliferation", "setting": "Compound 51 0.05 μm + Midostaurin 0.0012 μM", "result": "−0.02"}, {"measurement": "Effect size (BIGL, HSA null model), MV4-11 Cell Proliferation", "setting": "Compound 51 0.05 μm + Midostaurin 0.006 μM", "result": "−0.07"}, {"measurement": "Effect size (BIGL, HSA null model), MV4-11 Cell Proliferation", "setting": "Compound 51 0.05 μm + Midostaurin 0.025 μM", "result": "−0.14"}, {"measurement": "Effect size (BIGL, HSA null model), MV4-11 Cell Proliferation", "setting": "Compound 51 0.05 μm + Midostaurin 0.05 μM", "result": "−0.13"}, {"measurement": "Effect size (BIGL, HSA null model), MV4-11 Cell Proliferation", "setting": "Compound 51 0.05 μm + Midostaurin 0.1 μM", "result": "−0.04"}, {"measurement": "Effect size (BIGL, HSA null model), MV4-11 Cell Proliferation", "setting": "Compound 51 0.05 μm + Midostaurin 0.5 μM", "result": 0.03}, {"measurement": "Effect size (BIGL, HSA null model), MV4-11 Cell Proliferation", "setting": "Compound 51 0.1 μm + Decitabine 0.0015 μM", "result": 0.01}, {"measurement": "Effect size (BIGL, HSA null model), MV4-11 Cell Proliferation", "setting": "Compound 51 0.1 μm + Decitabine 0.035 μM", "result": "−0.04"}, {"measurement": "Effect size (BIGL, HSA null model), MV4-11 Cell Proliferation", "setting": "[1]", "result": "−0.09"}, {"measurement": "Synergy/antagonism call (maxR test), MV4-11 Cell Proliferation", "setting": "[1]", "result": "**"}, {"measurement": "Effect size (BIGL, HSA null model), MV4-11 Cell Proliferation", "setting": "[2]", "result": "−0.11"}, {"measurement": "Synergy/antagonism call (maxR test), MV4-11 Cell Proliferation", "setting": "[2]", "result": "**"}, {"measurement": "Effect size (BIGL, HSA null model), MV4-11 Cell Proliferation", "setting": "Compound 51 0.1 μm + Decitabine 3 μM", "result": "−0.06"}, {"measurement": "Effect size (BIGL, HSA null model), MV4-11 Cell Proliferation", "setting": "Compound 51 0.1 μm + Gilteritinib 0.0005 μM", "result": "−0.07"}, {"measurement": "Effect size (BIGL, HSA null model), MV4-11 Cell Proliferation", "setting": "Compound 51 0.1 μm + Gilteritinib 0.005 μM", "result": "−0.03"}, {"measurement": "Effect size (BIGL, HSA null model), MV4-11 Cell Proliferation", "setting": "Compound 51 0.1 μm + Gilteritinib 0.01 μM", "result": "−0.02"}, {"measurement": "Effect size (BIGL, HSA null model), MV4-11 Cell Proliferation", "setting": "Compound 51 0.1 μm + Gilteritinib 0.05 μM", "result": "−0.02"}, {"measurement": "Effect size (BIGL, HSA null model), MV4-11 Cell Proliferation", "setting": "Compound 51 0.1 μm + Gilteritinib 0.3 μM", "result": "−0.02"}, {"measurement": "Effect size (BIGL, HSA null model), MV4-11 Cell Proliferation", "setting": "Compound 51 0.1 μm + Gilteritinib 1 μM", "result": "−0.02"}, {"measurement": "Effect size (BIGL, HSA null model), MV4-11 Cell Proliferation", "setting": "Compound 51 0.1 μm + Midostaurin 0.0012 μM", "result": "−0.03"}, {"measurement": "Effect size (BIGL, HSA null model), MV4-11 Cell Proliferation", "setting": "Compound 51 0.1 μm + Midostaurin 0.006 μM", "result": "−0.06"}, {"measurement": "Effect size (BIGL, HSA null model), MV4-11 Cell Proliferation", "setting": "Compound 51 0.1 μm + Midostaurin 0.025 μM", "result": "−0.08"}, {"measurement": "Effect size (BIGL, HSA null model), MV4-11 Cell Proliferation", "setting": "Compound 51 0.1 μm + Midostaurin 0.05 μM", "result": "−0.09"}, {"measurement": "Effect size (BIGL, HSA null model), MV4-11 Cell Proliferation", "setting": "Compound 51 0.1 μm + Midostaurin 0.1 μM", "result": "−0.04"}, {"measurement": "Effect size (BIGL, HSA null model), MV4-11 Cell Proliferation", "setting": "Compound 51 0.1 μm + Midostaurin 0.5 μM", "result": 0.03}, {"measurement": "Effect size (BIGL, HSA null model), MV4-11 Cell Proliferation", "setting": "Compound 51 0.5 μm + Decitabine 0.0015 μM", "result": 0}, {"measurement": "Effect size (BIGL, HSA null model), MV4-11 Cell Proliferation", "setting": "Compound 51 0.5 μm + Decitabine 0.035 μM", "result": "−0.01"}, {"measurement": "Effect size (BIGL, HSA null model), MV4-11 Cell Proliferation", "setting": "Compound 51 0.5 μm + Decitabine 0.15 μM", "result": "−0.02"}, {"measurement": "Effect size (BIGL, HSA null model), MV4-11 Cell Proliferation", "setting": "Compound 51 0.5 μm + Gilteritinib 0.0005 μM", "result": "−0.02"}, {"measurement": "Effect size (BIGL, HSA null model), MV4-11 Cell Proliferation", "setting": "Compound 51 0.5 μm + Gilteritinib 0.005 μM", "result": "−0.03"}, {"measurement": "Effect size (BIGL, HSA null model), MV4-11 Cell Proliferation", "setting": "Compound 51 0.5 μm + Gilteritinib 0.01 μM", "result": "−0.02"}, {"measurement": "Effect size (BIGL, HSA null model), MV4-11 Cell Proliferation", "setting": "Compound 51 0.5 μm + Gilteritinib 0.05 μM", "result": "−0.02"}, {"measurement": "Effect size (BIGL, HSA null model), MV4-11 Cell Proliferation", "setting": "Compound 51 0.5 μm + Gilteritinib 0.3 μM", "result": "−0.02"}, {"measurement": "Effect size (BIGL, HSA null model), MV4-11 Cell Proliferation", "setting": "Compound 51 0.5 μm + Gilteritinib 1 μM", "result": "−0.02"}, {"measurement": "Effect size (BIGL, HSA null model), MV4-11 Cell Proliferation", "setting": "Compound 51 1 μm + Decitabine 0.0015 μM", "result": 0}, {"measurement": "Effect size (BIGL, HSA null model), MV4-11 Cell Proliferation", "setting": "Compound 51 1 μm + Decitabine 0.035 μM", "result": "−0.01"}, {"measurement": "Effect size (BIGL, HSA null model), MV4-11 Cell Proliferation", "setting": "Compound 51 1 μm + Decitabine 0.15 μM", "result": "−0.02"}, {"measurement": "Effect size (BIGL, HSA null model), MV4-11 Cell Proliferation", "setting": "Compound 51 1 μm + Decitabine 1.5 μM", "result": "−0.03"}, {"measurement": "Effect size (BIGL, HSA null model), MV4-11 Cell Proliferation", "setting": "Compound 51 1 μm + Decitabine 3 μM", "result": "−0.03"}, {"measurement": "Effect size (BIGL, HSA null model), MV4-11 Cell Proliferation", "setting": "Compound 51 1 μm + Gilteritinib 0.0005 μM", "result": "−0.02"}, {"measurement": "Effect size (BIGL, HSA null model), MV4-11 Cell Proliferation", "setting": "Compound 51 1 μm + Gilteritinib 0.005 μM", "result": "−0.02"}, {"measurement": "Effect size (BIGL, HSA null model), MV4-11 Cell Proliferation", "setting": "Compound 51 1 μm + Gilteritinib 0.01 μM", "result": "−0.02"}, {"measurement": "Effect size (BIGL, HSA null model), MV4-11 Cell Proliferation", "setting": "Compound 51 1 μm + Gilteritinib 0.05 μM", "result": "−0.02"}, {"measurement": "Effect size (BIGL, HSA null model), MV4-11 Cell Proliferation", "setting": "Compound 51 1 μm + Gilteritinib 0.3 μM", "result": "−0.02"}, {"measurement": "Effect size (BIGL, HSA null model), MV4-11 Cell Proliferation", "setting": "Compound 51 1 μm + Gilteritinib 1 μM", "result": "−0.02"}, {"measurement": "Effect size (BIGL, HSA null model), MV4-11 Cell Proliferation", "setting": "Compound 51 1 μm + Midostaurin 0.0012 μM", "result": 0.02}, {"measurement": "Effect size (BIGL, HSA null model), MV4-11 Cell Proliferation", "setting": "Compound 51 1 μm + Midostaurin 0.006 μM", "result": 0.01}, {"measurement": "Effect size (BIGL, HSA null model), MV4-11 Cell Proliferation", "setting": "Compound 51 1 μm + Midostaurin 0.025 μM", "result": 0}, {"measurement": "Effect size (BIGL, HSA null model), MV4-11 Cell Proliferation", "setting": "Compound 51 1 μm + Midostaurin 0.05 μM", "result": 0}, {"measurement": "Effect size (BIGL, HSA null model), MV4-11 Cell Proliferation", "setting": "Compound 51 1 μm + Midostaurin 0.1 μM", "result": 0}, {"measurement": "Effect size (BIGL, HSA null model), MV4-11 Cell Proliferation", "setting": "Compound 51 1 μm + Midostaurin 0.5 μM", "result": 0.03}, {"measurement": "combination effect on proliferation (cytotoxicity)", "setting": "in combination with decitabine, MV4-11", "result": "synergistically cytotoxic"}, {"measurement": "combination effect on proliferation at low doses of gilteritinib", "setting": "in combination with gilteritinib 10 nM, MV4-11", "result": "synergistic effect"}, {"measurement": "combination effect on proliferation (cytotoxicity)", "setting": "in combination with gilteritinib, MV4-11", "result": "not antagonistically cytotoxic"}, {"measurement": "combination effect on proliferation (cytotoxicity)", "setting": "in combination with midostaurin, MV4-11", "result": "not antagonistically cytotoxic"}]}]}
